Structures are written as SMILES.

Data on two compounds can be found in patent publication US11326207B2, “Sequencing using non-natural nucleotides” (Ultima Genomics, Inc., priority 2017, dated 2022).

Common to all, as to format: biochemical
Experiment [1] concerns Bst 2.0 DNA polymerase. Description: Homopolymer assay of dCTP analogs (Example 9). As to conditions: rates of fluorescence, homopolymer template. On the procedure:
(§1) A homopolymer assay was performed to investigate the effectiveness of E-dCTP and P-dUTP as nucleotide analogs of dCTP. 50 μl solutions containing a template nucleic acid molecule and primer and Bst 2.0 DNA polymerase are placed in a microplate reader and the fluorescence of the solution is measured in kinetic mode. A fluorescein attached to an oligonucleotide (indicated with a * in FIG. 7) was quenched in the substrate due to the proximity of complementary G bases. Addition of dCTP and/or dCTP analogs causes extension of the 3′ end of the primer, formation of double-stranded DNA, and unquenching of the fluorescein. The fluorescence increases with the addition of multiple nucleotides.

In experiment [2] the test system is Bst 2.0 DNA polymerase. Description: Homopolymer assays of nucleotide analogs (Example 10). As to conditions: Natural Nucleotide C (dCTP = 1); template oligo 333, primer 221L. On the procedure: as §1
Additional homopolymer assays were performed according to the procedure outlined in Example 8 using different nucleotides and nucleotide analogs.
To test for dUTP or TTP incorporation, oligo 332 was used as a template and oligo 221L was used as a primer. To test for dCTP incorporation, oligo 333 was used as a template and oligo 221L was used as a primer. To test for dGTP incorporation, oligo 334 was used as a template and oligo 221L was used as a primer. To test for dATP incorporation, hairpin oligo 221 was used as both a primer and template.

In another experiment the target is T1, Bst DNA polymerase (Geobacillus stearothermophilus, UniProt P52026).
T1 sequence (P52026 1-876): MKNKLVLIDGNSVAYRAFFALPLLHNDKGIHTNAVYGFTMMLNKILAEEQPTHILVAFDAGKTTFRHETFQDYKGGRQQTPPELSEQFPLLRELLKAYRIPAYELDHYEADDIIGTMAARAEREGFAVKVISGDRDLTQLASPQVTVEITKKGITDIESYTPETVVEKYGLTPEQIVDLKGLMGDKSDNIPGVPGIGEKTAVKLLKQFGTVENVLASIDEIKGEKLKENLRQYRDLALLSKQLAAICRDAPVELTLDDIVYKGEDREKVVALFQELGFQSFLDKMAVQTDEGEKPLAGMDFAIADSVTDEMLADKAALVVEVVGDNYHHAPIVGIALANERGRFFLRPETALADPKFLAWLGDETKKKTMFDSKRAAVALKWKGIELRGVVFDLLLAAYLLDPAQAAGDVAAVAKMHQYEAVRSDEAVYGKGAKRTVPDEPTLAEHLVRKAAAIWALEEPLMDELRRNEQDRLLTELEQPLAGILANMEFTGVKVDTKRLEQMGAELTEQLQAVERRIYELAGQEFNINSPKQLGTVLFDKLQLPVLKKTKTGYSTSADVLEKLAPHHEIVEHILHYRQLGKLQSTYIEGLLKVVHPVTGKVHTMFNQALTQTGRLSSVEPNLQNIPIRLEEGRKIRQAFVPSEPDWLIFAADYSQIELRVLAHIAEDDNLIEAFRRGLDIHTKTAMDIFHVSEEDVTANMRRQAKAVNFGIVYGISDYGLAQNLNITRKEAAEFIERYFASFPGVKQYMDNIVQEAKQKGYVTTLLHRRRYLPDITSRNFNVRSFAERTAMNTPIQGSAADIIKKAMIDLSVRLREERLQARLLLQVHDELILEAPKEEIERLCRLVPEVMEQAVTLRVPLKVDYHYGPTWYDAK
In words: Replacement of dCTP with P-dCTP, context metric (Example 10). The source says: A microscope slide surface was modified with polyaminosilane to allow the attachment of 1 micron beads each containing one of three different oligonucleotide templates. To each template was bound an oligonucleotide primer and Bst DNA polymerase. Solutions of mixtures of labeled and unlabeled nucleotide, of one type at a time, were exposed to the surface, followed by a wash solution. The fluorescence of labeled beads was detected and quantitated. The fluorescence label was cleaved by treatment with tris(hydroxypropyl)phosphine (THP) after each step.
Context was measured for each experiment. Context is given by the context metric, C, which is defined as the (maximum-minimum signal)/average signal.
Experiments were performed replacing dCTP with P-dCTP for three different oligonucleotide templates.

With `C#Cc1cn([C@H]2C[C@H](O)[C@@H](COP(=O)(O)OP(=O)(O)OP(=O)(O)O)O2)c(=O)nc1N` [E-dCTP, 5-ethynyl-2′-deoxycytidine 5′triphosphate], the “rate of incorporation compared with natural dCTP” value with Bst 2.0 DNA polymerase [1] is given as “much faster than that of natural dCTP”. Besides, in the experiment with Bst 2.0 DNA polymerase [2], the “Relative Rate in Homopolymer Assay” value is reported as over 1.

In the case of `Nc1ccn([C@H]2C[C@H](O)[C@@H](COP(=O)(O)OP(=O)(O)OP(=O)(O)O)O2)c(=O)n1` [dCTP, deoxycytidine triphosphate], the “Relative Rate in Homopolymer Assay” value in the experiment on Bst 2.0 DNA polymerase [2] came to 1. The “C (context metric)” value at Bst DNA polymerase (Oligonucleotide template 1) is reported as 0.85; at Bst DNA polymerase (Oligonucleotide template 2), 0.72; on Bst DNA polymerase (Oligonucleotide template 3) it was 0.70.
